Like-named read-outs stand apart in the source and are kept apart here. Residues, ends and D or L forms follow the SMILES beside them.
How the values were obtained:
[1] = Biodistribution in normal C57 mice; type: in vivo; details: C57, mouse, lung, iv, 0.037 MBq, total radioactivity
Protocol: (§1) Biodistribution Studies: All the animal studies were conducted in compliance with Institutional Animal Care and Use Committee approval. B16/F10 pulmonary metastatic melanoma model was established by injecting 0.2 million of cultured B16/F10 cells into each C57 mouse (Harlan, Indianapolis, Ind.) through the tail vein. The B16/F10 pulmonary metastatic melanoma-bearing C57 mice were used for biodistribution studies 16 days after the cell injection. The pharmacokinetics of ^111In-DOTA-GlyGlu-CycMSH was determined in B16/F10 pulmonary metastatic melanoma-bearing and normal C57 mice. HPLC-purified 0.037 MBq of ^111In-DOTA-GlyGlu-CycMSH was injected into each mouse through the tail vein. Groups of 5 mice were sacrificed at 2, 4 and 24 h post-injection, and tumors and organs of interest were harvested, weighed and counted. Blood values were taken as 6.5% of the whole-body weight. Statistical analysis was performed using the Student's t-test for unpaired data.

[2] = Biodistribution in B16/F10 pulmonary metastatic melanoma-bearing C57 mice; type: in vivo, mouse; details: C57, mouse, iv, 0.037 MBq, total radioactivity
Protocol: as §1

[3] = system: B16/F10 pulmonary metastatic melanoma-bearing C57 mice; test: as above; type: in vivo, mouse
Protocol: as §1

Structure (SMILES): CCCC[C@@H]1NC(=O)[C@@H](NC(=O)[C@H](CCC(=O)O)NC(=O)CNC(=O)CN2CCN(CC(=O)O)CCN(CC(=O)O)CCN(CC(=O)O)CC2)CCCCNC(=O)[C@H](CC(=O)O)NC(=O)[C@H](C(C)C)NC(=O)[C@@H]2CCCN2C(=O)[C@H](CCCNC(=N)N)NC(=O)CNC(=O)[C@H](Cc2c[nH]c3ccccc23)NC(=O)[C@H](CCCNC(=N)N)NC(=O)[C@@H](Cc2ccccc2)NC(=O)[C@H](Cc2c[nH]cn2)NC(=O)[C@H](CCC(=O)O)NC1=O [^111In-DOTA-GlyGlu-CycMSH, metal not drawn] (HELM PEPTIDE1{[O=C(O)CN1CCN(CC(=O)O)CCN(CC(=O)[*:2])CCN(CC(=O)O)CC1].G.E.K.[Nle].E.H.[dF].R.W.G.R.P.V.D}$PEPTIDE1,PEPTIDE1,4:R3-15:R2$$$V2.0)
- tissue uptake at 2 h ([1]; 2 h post-injection): 0.08 ± 0.08 %ID/g
- tissue uptake at 4 h ([1]; 4 h post-injection): 0.05 ± 0.05 %ID/g
- tissue uptake at 24 h ([1]; 24 h post-injection): 0.03 ± 0.02 %ID/g
- dose excreted ([2]; in vivo, at 24 h post-injection, read-out: injected radioactivity cleared out the body): ~96%
- tissue uptake at 2 h ([2]; metastatic melanoma-bearing lung, 2 h post-injection, 16 days post the cell injection): 2 ± 0.74 %ID/g
- tissue uptake at 4 h ([2]; metastatic melanoma-bearing lung, 4 h post-injection, 16 days post the cell injection): 1.83 ± 0.12 %ID/g
- tissue uptake at 24 h ([2]; metastatic melanoma-bearing lung, 24 h post-injection, 16 days post the cell injection): 0.29 ± 0.06 %ID/g
- dose excreted ([2]; urine, by 2 h post-injection, read-out: injected radioactivity cleared through the urinary system): ~84%
- uptake in metastatic melanoma-bearing lung relative to normal lung ([3]; 2 h post-injection): 25.0 times
- uptake in metastatic melanoma-bearing lung relative to normal lung ([3]; 4 h post-injection): 36.6 times
- uptake in metastatic melanoma-bearing lung relative to normal lung ([3]; 24 h post-injection): 9.7 times
